In ChEMBL document CHEMBL1134151, “Solution-phase, parallel synthesis and pharmacological evaluation of acylguanidine derivatives as potential sodium channel blockers” (Bioorg Med Chem Lett, 2001):

Columns and labels:
[1] = target: Sodium channel protein type 2 subunit alpha (Homo sapiens, UniProt Q99250); assay: Inhibition of sodium channel blockade in CHO cells expressing neuronal mammalian type IIA (CNaIIA) sodium channel; format: cell-based
Mus musculus = assay: In vivo anticonvulsant activity tested as percent inhibition of audiogenic antiseizure in DBA/2 mice at a dose of 20 mg/kg, ip; format: functional; conditions: route intraperitoneal
[2] = target: Sodium channel protein type 5 subunit alpha (Homo sapiens, UniProt Q14524); assay: Inhibition of sodium channel blockade in CHO cells expressing human cardiac (hHI) sodium channel; format: cell-based
[3] = pKa value determined; format: physicochemical
[4] = Partition coefficient (logD); format: physicochemical; conditions: octanol/water

Chain of Sodium channel protein type 2 subunit alpha (Q99250 whole entry): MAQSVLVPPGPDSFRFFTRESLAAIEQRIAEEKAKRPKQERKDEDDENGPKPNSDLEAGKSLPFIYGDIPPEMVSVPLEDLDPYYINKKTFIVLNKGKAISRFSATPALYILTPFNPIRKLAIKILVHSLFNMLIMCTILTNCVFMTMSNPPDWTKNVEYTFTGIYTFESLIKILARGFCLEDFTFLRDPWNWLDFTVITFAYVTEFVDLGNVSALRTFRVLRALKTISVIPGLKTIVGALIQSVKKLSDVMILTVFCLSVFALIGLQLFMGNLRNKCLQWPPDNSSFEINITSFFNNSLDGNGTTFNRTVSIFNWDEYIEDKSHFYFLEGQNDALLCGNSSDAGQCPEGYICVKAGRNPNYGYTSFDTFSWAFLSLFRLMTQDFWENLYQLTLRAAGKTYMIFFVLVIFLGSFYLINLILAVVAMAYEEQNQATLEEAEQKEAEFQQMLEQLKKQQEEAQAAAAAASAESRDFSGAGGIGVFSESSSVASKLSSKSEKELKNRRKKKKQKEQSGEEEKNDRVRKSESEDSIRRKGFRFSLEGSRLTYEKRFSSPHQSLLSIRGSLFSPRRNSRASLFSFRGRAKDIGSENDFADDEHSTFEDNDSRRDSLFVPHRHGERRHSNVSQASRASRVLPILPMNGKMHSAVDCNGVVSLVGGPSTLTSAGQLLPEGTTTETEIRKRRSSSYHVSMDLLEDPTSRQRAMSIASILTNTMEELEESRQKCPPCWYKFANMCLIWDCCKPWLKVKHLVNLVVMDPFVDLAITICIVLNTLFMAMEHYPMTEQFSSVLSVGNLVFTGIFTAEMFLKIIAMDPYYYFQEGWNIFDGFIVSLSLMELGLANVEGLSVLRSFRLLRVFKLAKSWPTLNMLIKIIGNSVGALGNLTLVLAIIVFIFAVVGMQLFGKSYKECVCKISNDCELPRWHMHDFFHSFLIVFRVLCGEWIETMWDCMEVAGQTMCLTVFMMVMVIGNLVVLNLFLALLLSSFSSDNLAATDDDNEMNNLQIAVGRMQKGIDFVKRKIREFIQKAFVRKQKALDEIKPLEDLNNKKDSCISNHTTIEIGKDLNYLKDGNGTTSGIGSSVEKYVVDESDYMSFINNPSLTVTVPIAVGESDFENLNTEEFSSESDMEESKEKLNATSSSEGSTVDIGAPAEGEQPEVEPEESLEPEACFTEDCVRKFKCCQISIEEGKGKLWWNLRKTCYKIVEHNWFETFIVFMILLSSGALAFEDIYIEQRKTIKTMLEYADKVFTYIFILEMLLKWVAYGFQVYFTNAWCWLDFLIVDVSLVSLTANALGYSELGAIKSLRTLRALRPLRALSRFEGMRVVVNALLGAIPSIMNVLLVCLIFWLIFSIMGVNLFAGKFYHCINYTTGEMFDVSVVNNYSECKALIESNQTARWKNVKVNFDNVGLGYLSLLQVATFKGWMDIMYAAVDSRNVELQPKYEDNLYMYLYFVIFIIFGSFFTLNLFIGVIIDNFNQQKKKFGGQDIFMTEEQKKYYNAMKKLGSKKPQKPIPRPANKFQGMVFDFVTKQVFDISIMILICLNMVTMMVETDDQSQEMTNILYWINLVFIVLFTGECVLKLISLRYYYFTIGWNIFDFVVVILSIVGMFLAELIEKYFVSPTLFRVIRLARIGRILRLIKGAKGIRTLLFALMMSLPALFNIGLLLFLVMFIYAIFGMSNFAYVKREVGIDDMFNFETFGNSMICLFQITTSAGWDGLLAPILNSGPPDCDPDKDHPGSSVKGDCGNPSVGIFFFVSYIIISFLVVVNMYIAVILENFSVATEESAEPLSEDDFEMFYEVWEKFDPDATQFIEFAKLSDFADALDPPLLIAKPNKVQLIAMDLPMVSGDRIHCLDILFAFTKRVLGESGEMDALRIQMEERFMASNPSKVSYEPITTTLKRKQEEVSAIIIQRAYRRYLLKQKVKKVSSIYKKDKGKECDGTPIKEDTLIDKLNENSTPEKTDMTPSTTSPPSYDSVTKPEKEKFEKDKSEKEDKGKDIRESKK
Chain of Sodium channel protein type 5 subunit alpha (Q14524 whole entry): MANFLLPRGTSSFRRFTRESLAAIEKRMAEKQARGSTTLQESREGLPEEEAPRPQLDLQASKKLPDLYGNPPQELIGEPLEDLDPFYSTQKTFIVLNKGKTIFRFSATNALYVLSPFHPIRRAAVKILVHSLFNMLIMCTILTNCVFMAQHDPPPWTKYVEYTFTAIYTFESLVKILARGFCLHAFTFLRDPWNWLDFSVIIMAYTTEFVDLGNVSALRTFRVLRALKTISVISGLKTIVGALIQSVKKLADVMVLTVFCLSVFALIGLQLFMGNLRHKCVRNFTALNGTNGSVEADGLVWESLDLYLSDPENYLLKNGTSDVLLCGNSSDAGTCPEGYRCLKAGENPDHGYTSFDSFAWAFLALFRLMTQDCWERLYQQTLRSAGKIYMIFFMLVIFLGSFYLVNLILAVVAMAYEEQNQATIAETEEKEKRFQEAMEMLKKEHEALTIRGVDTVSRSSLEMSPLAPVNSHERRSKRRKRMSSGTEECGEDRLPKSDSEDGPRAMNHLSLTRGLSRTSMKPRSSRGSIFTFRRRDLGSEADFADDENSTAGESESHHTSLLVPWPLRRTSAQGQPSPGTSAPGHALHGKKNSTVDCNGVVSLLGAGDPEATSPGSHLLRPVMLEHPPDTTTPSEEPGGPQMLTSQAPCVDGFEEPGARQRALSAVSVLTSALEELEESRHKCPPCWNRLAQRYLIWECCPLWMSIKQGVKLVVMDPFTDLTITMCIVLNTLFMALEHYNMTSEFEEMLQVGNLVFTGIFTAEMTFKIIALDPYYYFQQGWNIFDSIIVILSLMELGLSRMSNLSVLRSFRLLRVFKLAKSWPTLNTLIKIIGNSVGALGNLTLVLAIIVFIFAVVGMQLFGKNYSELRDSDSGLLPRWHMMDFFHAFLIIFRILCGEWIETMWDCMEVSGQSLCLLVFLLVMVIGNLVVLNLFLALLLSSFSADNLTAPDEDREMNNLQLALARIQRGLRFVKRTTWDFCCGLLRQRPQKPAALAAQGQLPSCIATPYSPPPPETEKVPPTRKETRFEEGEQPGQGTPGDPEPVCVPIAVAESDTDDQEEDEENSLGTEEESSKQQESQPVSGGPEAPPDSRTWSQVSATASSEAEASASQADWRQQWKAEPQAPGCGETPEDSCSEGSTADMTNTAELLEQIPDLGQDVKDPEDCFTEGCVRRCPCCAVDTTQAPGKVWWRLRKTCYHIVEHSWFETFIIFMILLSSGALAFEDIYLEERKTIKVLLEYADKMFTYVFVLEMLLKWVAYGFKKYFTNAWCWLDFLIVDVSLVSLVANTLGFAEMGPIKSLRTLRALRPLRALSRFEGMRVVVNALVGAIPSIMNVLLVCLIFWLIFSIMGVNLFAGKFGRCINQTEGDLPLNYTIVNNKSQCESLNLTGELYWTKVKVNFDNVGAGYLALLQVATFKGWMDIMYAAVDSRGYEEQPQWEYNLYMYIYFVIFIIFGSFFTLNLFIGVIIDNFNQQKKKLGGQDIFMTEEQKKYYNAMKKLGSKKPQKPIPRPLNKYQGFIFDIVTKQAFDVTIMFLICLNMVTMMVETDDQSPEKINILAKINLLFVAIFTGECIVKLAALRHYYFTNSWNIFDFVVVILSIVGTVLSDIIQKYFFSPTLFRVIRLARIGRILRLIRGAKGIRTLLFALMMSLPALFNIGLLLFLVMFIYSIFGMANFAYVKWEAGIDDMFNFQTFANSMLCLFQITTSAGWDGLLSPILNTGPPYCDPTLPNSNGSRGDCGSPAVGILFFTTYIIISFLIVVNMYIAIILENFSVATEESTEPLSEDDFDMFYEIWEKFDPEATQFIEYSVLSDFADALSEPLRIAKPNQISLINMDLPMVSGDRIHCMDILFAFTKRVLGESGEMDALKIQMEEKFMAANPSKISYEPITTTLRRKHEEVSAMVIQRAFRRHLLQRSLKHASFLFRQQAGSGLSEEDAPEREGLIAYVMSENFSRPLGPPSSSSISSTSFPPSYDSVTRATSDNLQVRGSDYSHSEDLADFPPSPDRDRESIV

SMILES	IC50 [1]	inhibition in vivo at 20 mg/kg (Mus musculus)	IC50 [2]	pKa [3]	logD [4]
Cc1ccccc1C(=O)NC(N)=NCCCCc1ccccc1	1.2 µM	53%	1.75 µM	–	–
Cc1ccc(C(=O)NC(=N)NCCCc2ccccc2)cc1	6.03 µM	–	5.25 µM	–	–
NC(=NCCCCc1ccccc1)NC(=O)c1ccco1	13.8 µM	5%	7.9 µM	–	–
Cc1ccc(C(=O)NC(N)=NCc2ccccc2)cc1	3.87 µM	–	–	–	–
COc1cccc2[nH]cc(CCN=C(N)NC(=O)c3ccc(C)cc3)c12	3.35 µM	–	3.92 µM	–	–
Cc1ccc(C(=O)NC(N)=NCCOc2ccccc2)cc1	3.23 µM	–	14.2 µM	–	–
CN=C(NCCCCc1ccccc1)NC(=O)c1ccc(C)cc1	4.16 µM	–	9 µM	–	–
CCOc1ccc(C(=O)NC(N)=NCCCCc2ccccc2)cc1	0.76 µM	60%	1.1 µM	–	–
Cc1ccc(C(=O)NC(=N)N2CCc3ccccc32)cc1	8.81 µM	16%	> 100 µM	–	–
NC(=NCCCCc1ccccc1)NC(=O)c1cc(Cl)ccc1Cl	3.25 µM	–	7.89 µM	–	–
Cc1ccc(C(=O)NC(N)=NCCCN(C)C)cc1	> 25 µM	–	–	–	–
Cc1ccc(C(=O)NC(=N)NCCc2cccs2)cc1	4.95 µM	–	10.5 µM	–	–
Cc1ccc(C(=O)NC(N)=NCc2cccc3ccccc23)cc1	2.38 µM	–	8.85 µM	–	–
N=C(NCCCCc1ccccc1)NC(=O)c1cccs1	4.31 µM	–	2.35 µM	–	–
Cc1ccc(C(=O)NC(=N)NCCCCc2ccccc2)cc1	1.14 µM	75%	2.85 µM	7.09	–
N=C(N)Nc1ccccc1 [PHENYLGUANIDINE]	–	–	–	10.8	–
COc1ccc2[nH]cc(CCN=C(N)NC(=O)c3ccc(C)cc3)c2c1	1.76 µM	–	1.76 µM	–	–
COc1ccc(C(=O)NC(=N)NCCCCc2ccccc2)cc1	0.82 µM	42%	2.1 µM	–	–
NC(=NCCCCc1ccccc1)NC(=O)c1cccc(Cl)c1Cl	1.48 µM	–	2.71 µM	–	–
Cc1ccc(C(=O)NC(=N)N2CCCc3ccc(C(F)(F)F)cc32)cc1	> 25 µM	–	–	–	–
Cc1ccc(C(=O)NC(=N)N(C)Sc2cccc(C)c2)cc1	5.44 µM	–	–	–	–
NC(=NCCCCc1ccccc1)NC(=O)c1ccc(Cl)cc1	4.3 µM	–	3.6 µM	–	–

SMILES	IC50 [1]	inhibition in vivo at 20 mg/kg (Mus musculus)	IC50 [2]	pKa [3]	logD [4]
Cc1ccc(C(=O)NC(=N)N(C)c2cccc(I)c2)cc1	9.45 µM	–	–	–	–
Cc1ccc(C(=O)NC(=N)Nc2ccc(C(C)(C)C)cc2)cc1	> 24 µM	–	–	–	–
Cc1ccc(C(=O)NC(N)=NCCc2ccccc2)cc1	2.66 µM	–	5.65 µM	–	–
Cc1ccc(C(=O)N/C(N)=N\c2ccccc2C(C)C)cc1	4.36 µM	–	4.5 µM	–	–
Cc1ccc(C(=O)NC(N)=NCCCOc2ccccc2)cc1	2.67 µM	54%	5.6 µM	–	–
Cc1ccc(C(=O)NC(N)=Nc2cc(Br)ccc2Br)cc1	> 25 µM	–	–	–	–
NC(=NCCCCc1ccccc1)NC(=O)c1c(Cl)cccc1Cl	5.03 µM	–	5.4 µM	–	–
Cc1ccc(C(=O)NC(N)=NCCc2ccc(Cl)cc2)cc1	1.97 µM	–	8.5 µM	–	–
CCCCOc1ccc(C(=O)NC(N)=NCCCCc2ccccc2)cc1	0.63 µM	97%	0.56 µM	–	–
Cc1ccc(C(=O)NC(N)=NCCSCc2ccccc2)cc1	3.9 µM	–	10.8 µM	–	–
Cc1ccc(C(=O)NC(=N)NCCCCCc2ccccc2)cc1	2.11 µM	7%	3.6 µM	–	–
NC(=NCCCCc1ccccc1)NC(=O)c1cccc2ccccc12	0.86 µM	9%	4.1 µM	–	–
Cc1ccc(C(=O)NC(=N)Nc2cccc3ccccc23)cc1	3.29 µM	–	–	–	–
CCCC/N=C(/N)NC(=O)c1ccc(C)cc1	17.4 µM	–	9 µM	–	–
Cc1ccc(C(=O)NC(=N)Nc2ccc(OCc3ccccc3)cc2)cc1	10.1 µM	–	–	–	–
COc1cc(NC(=N)NC(=O)c2ccc(C)cc2)cc(OC)c1OC	1.92 µM	–	24.4 µM	–	–
N=C(N)NC(=O)c1ccccc1	–	–	–	6.98	–
NC(=NCCCCc1ccccc1)NC(=O)c1ccc(Cl)c(Cl)c1	7.11 µM	–	15.5 µM	–	–
Cc1ccc(C(=O)NC(=N)Nc2ccc(OC(C)C)cc2)cc1	2.02 µM	–	5.75 µM	–	–
N=C(N)N [GUANIDINE]	–	–	–	12.6	–
Cc1ccc(C(=O)NC(=N)Nc2ccc(C(C)C)cc2)cc1	1.95 µM	30%	19.7 µM	6.35	4.4
COc1cc(C(=O)NC(N)=NCCCCc2ccccc2)cc(OC)c1OC	1.39 µM	–	1.51 µM	–	–
